{
  "source": "paper PMC12319374",
  "about": "“Efficient and Rapid Arylation of NH₂‐Unprotected Bromobisindole Ethanamines via Suzuki‐Miyaura Coupling: Generating New Leads Against Leishmania” (Chemistry (Weinheim an Der Bergstrasse, Germany), 2025)",
  "key": {"[1]": {"tested_on": "L. infantum promastigotes", "details": "cited from earlier work; for IC50: read-out: IC50 against L. infantum promastigotes"}, "[2]": {"tested_on": "intracellular L. infantum amastigotes", "experiment": "Anti-amastigote assay on infected THP-1 cells", "format": "cell-based, Leishmania infantum", "details": "2 µM, 72 h treatment, differentiated THP-1 infected 24 h", "method": "Figure 2 Effect of 3ca, 3af, and 3aq on intracellular L. infantum amastigotes. Differentiated THP‐1 cells were infected for 24 hours at 37°C; then, the different compounds were added at 2 µM, and the efficacy on intracellular amastigotes was calculated after 72 hours of treatment. Miltefosine was used as a positive control. (A) Percentages of infection are presented as mean ± SD. Ordinary one‐way ANOVA with Dunnett's multiple comparisons test. *p ≤ 0.05, **p ≤ 0.01 *** p ≤ 0.001. (B) Representative merged images showing THP‐1 cells stained with Hoechst dye (blue) and Leishmania amastigotes stained with CFSE (green).\nThe activity of compounds 3af, 3ca, and 3aq against intracellular amastigotes was evaluated in THP-1 infected cells. Briefly, THP-1 cells were seeded in a 12-well plate with a density of 3 × 10^5 cells/well and, to induce differentiation into macrophage-like cells, were treated with 20 ng/mL phorbol myristic acid (PMA) for 48 h. After differentiation, cells were infected for 24 h with L. infantum MHOM/TN/80/IPT1 promastigotes stained with carboxyfluorescein succinimidyl ester (eBioscience™ CFSE, Invitrogen) as described in reference, with a parasite-to-cell ratio of 10:1. Non-internalized promastigotes were then removed through medium replacement, and infected cells were treated with 3af, 3ca, and 3aq or with the positive control miltefosine for 72 h at concentrations of 2, 10, and 20 μM. To monitor the infection, cells were washed, formaldehyde/methanol fixed, stained with Hoechst dye, and observed with a fluorescence microscope at 5X or 10X magnification. For each field, two images were acquired: one with excitation at 340-390 nm (for Hoechst dye) and the other with excitation at 460-495 nm (for CFSE). Automated cell counting of single-color images was performed with ImageJ software to monitor the rate of infection, which was determined by normalizing the amastigote count from each green (CFSE) image to the THP-1 cell count from the corresponding blue (Hoechst) image. At least 500 THP-1 cells were counted for each condition. […]"}, "[3]": {"tested_on": "L. infantum MHOM/TN/80/IPT1 promastigotes", "experiment": "L. infantum promastigotes viability assay (MTS)", "format": "cell-based, Leishmania infantum", "details": "72 h; for IC50 / inhibition at 20 µM: Leishmania infantum; for IC50: scalar dilutions 2:3 from 20 to 1.17 µM, mean (95% CI); for inhibition at 20 µM / Inhibition of L. infantum at 20 µM (%): single dose 20 µM", "method": "(§1) Finally, eighteen compounds were first screened for efficacy against L. infantum MHOM/TN/80/IPT1 promastigotes at a single dose of 20 µM for 72 hours.\n(§2) L. infantum MHOM/TN/80/IPT1 (WHO international reference strain) was purchased from ATCC (ATCC® 50134™) and was cultured in Evans's Modified Tobie Medium (EMTM) at 26–28 °C. To test the compounds, parasites were resuspended in RPMI-PY medium as described previously. The human monocytic cell line THP-1 (ECACC 88081201) was cultured in RPMI-1640 medium supplemented with 10% heat-inactivated Fetal Bovine Serum (FBS), 100 μg/ml streptomycin, […] and maintained in a humidified incubator at 37 °C and 5% CO2. All the cell culture reagents were purchased from Sigma-Aldrich (St. Louis, MO, USA).\nLate log/stationary phase L. infantum promastigotes were resuspended in RPMI-PY medium at a density of 2.5×10^6 parasites/mL in 96-well plates (100μL/well). The anti-parasitic activity of the eighteen compounds of the library was initially investigated at a single dose of 20 μM for 72 h at 26 °C. […] Not treated parasites were included as negative control. As positive control, the anti-leishmanial drug miltefosine (Sigma-Aldrich, Milan, Italy) was used. Each condition was carried out in duplicate. To evaluate the promastigotes viability, the CellTiter 96H Aqueous Non-Radioactive Cell Proliferation Assay (Promega), based on the ability of viable cells to convert a soluble tetrazolium salt [3-(4.5-dimethylthiazol-2-yl)-5-(3-carboxymethoxy-phenyl)-2-(4-sulfophenyl)-2H-tetrazolium. MTS] to a formazan product, was performed. To this end, 20 μL of MTS/PMS (phenazinemethosulfate, Sigma-Aldrich) was added to 100 μL of culture medium and incubated at 26°C until formazan production. Absorbance was recorded on a Microplate Reader (Infinite® F50 Plus, Tecan) at 492 nm. The IC50 values were calculated using nonlinear regression curves in GraphPad Prism 8.0 (GraphPad Software,Inc., San Diego, CA). The equation used for data fitting was Y= 100/(1 + 10∧((Log IC50 −X)*HillSlope)) (hillslope not constrained), where X is the log of concentration and Y is the normalized response. […]"}, "[4]": {"tested_on": "THP-1 cells", "experiment": "Evaluation of cytotoxicity on THP-1 cells (MTS)", "format": "cell-based, human", "details": "for Cytotoxicity on THP‐1 (100, 20, 4 µM) (%): 72 h, PMA-differentiated THP-1; for SI (Selectivity index = CC50/IC50): CC50 THP-1 (72 h) / IC50 L. infantum promastigotes (72 h)", "method": "as §1, §2\n(§3) The cytotoxicity of the compounds was assessed on THP-1 cells seeded at a density of 5 × 10^5 cells per mL, 100μL/well in a 96-well plate and treated for 72 h with 20 ng/mL phorbol myristic acid (PMA) to induce differentiation into macrophages like cells. After cell adhesion to the plate, each molecule was tested at 4, 20 and 100 μM for 72 h at 37 °C.\n(§4) Three selected compounds were further evaluated at different concentration, obtained from scalar dilutions 1:2 (from 100 µM to 3.12 μM) for 72 h at 37°C. The negative control (untreated THP-1 cells) and the positive control (miltefosine) were included in each experiment. Each condition was carried out in duplicate. To evaluate the compounds cytotoxicity, the CellTiter 96H Aqueous Non-Radioactive Cell Proliferation Assay (Promega), was used as described before. […]"}, "[5]": {"experiment": "Evaluation of cytotoxicity on THP-1 cells (MTS)", "format": "cell-based, human", "details": "human; 72 h, scalar dilutions 1:2 from 100 to 3.12 µM; mean (95% CI); read-out: THP‐1 CC50 (µM) (95% CI)", "method": "as §1, §2, §3, §4"}, "[6]": {"target": "L. donovani DNA topoisomerase I", "design": "method as in PMID 17922678", "details": "read-out: IC50 (DNA topoisomerase I poison); cited from earlier work"}, "[7]": {"tested_on": "L. donovani", "design": "method as in PMID 23517732", "details": "read-out: IC50 against L. donovani; cited from earlier work"}, "[8]": {"tested_on": "human macrophage‐type THP‐1 cell", "design": "method as in PMID 38870204", "details": "cited from earlier work"}, "[9]": {"design": "method as in PMID 38870204", "details": "cited from earlier work"}, "[10]": {"tested_on": "mammalian cells", "design": "method as in PMID 34984300", "details": "cited from earlier work"}, "[11]": {"tested_on": "Leishmania infection", "design": "method as in PMID 38870204", "details": "mouse infection model; cited from earlier work"}},
  "note": "Values joined by “and” are separate entries in the source; they are usually repeats but may differ in a detail not shown here. Equal values may be shown once. “Also recorded” adds a separate entry of the source.",
  "data": [
    {"smiles": "NCC(c1c[nH]c2cc(Br)ccc12)c1c[nH]c2cc(Br)ccc12", "note": "[1a, 2,2‐bis(6‐bromo‐1H‐indol‐3‐yl) ethanamine]", "values": [
      {"measurement": "Activity against L. infantum", "setting": "[1]", "result": "active"}
    ]},
    {"smiles": "C=Cc1ccc(-c2ccc3c(C(CN)c4c[nH]c5cc(-c6ccc(C=C)cc6)ccc45)c[nH]c3c2)cc1", "note": "[3af, 2,2-bis(6-(4-vinylphenyl)-1H-indol-3-yl)ethan-1-amine]", "values": [
      {"measurement": "Effect on infection (intracellular amastigotes)", "setting": "[2]", "result": "significant reduction in the infection; also recorded: significant activity"},
      {"measurement": "IC50", "setting": "[3]", "result": 1.1, "unit": "µM"},
      {"measurement": "inhibition at 20 µM", "setting": "[3]", "result": "> 98", "unit": "%"},
      {"measurement": "Inhibition of L. infantum at 20 µM (%)", "setting": "[3]", "result": 98.7, "unit": "%"},
      {"measurement": "Cytotoxicity on THP‐1 (100, 20, 4 µM) (%)", "setting": "[4]; 4 µM", "result": "−14", "unit": "%"},
      {"measurement": "Cytotoxicity on THP‐1 (100, 20, 4 µM) (%)", "setting": "[4]; 20 µM", "result": 97, "unit": "%"},
      {"measurement": "Cytotoxicity on THP‐1 (100, 20, 4 µM) (%)", "setting": "[4]; 100 µM", "result": 78, "unit": "%"},
      {"measurement": "SI (Selectivity index = CC50/IC50)", "setting": "[4]", "result": 21.8},
      {"measurement": "CC50 at 72 h", "setting": "[5]", "result": 24, "unit": "µM"}
    ]},
    {"smiles": "NCC(c1c[nH]c2cc(-c3cccc4[nH]ccc34)ccc12)c1c[nH]c2cc(-c3cccc4[nH]ccc34)ccc12", "note": "[3aq, 2,2-di(1H,1'H-[4,6'-biindol]-3'-yl)ethan-1-amine]", "values": [
      {"measurement": "Effect on infection (intracellular amastigotes)", "setting": "[2]", "result": "significant reduction in the infection; also recorded: significant activity"},
      {"measurement": "IC50", "setting": "[3]", "result": 2.8, "unit": "µM"},
      {"measurement": "inhibition at 20 µM", "setting": "[3]", "result": 96.9, "unit": "%"},
      {"measurement": "Cytotoxicity on THP‐1 (100, 20, 4 µM) (%)", "setting": "[4]; 4 µM", "result": "−16", "unit": "%"},
      {"measurement": "Cytotoxicity on THP‐1 (100, 20, 4 µM) (%)", "setting": "[4]; 20 µM", "result": "72.9% and 73%"},
      {"measurement": "Cytotoxicity on THP‐1 (100, 20, 4 µM) (%)", "setting": "[4]; 100 µM", "result": 89, "unit": "%"},
      {"measurement": "SI (Selectivity index = CC50/IC50)", "setting": "[4]", "result": 5.2},
      {"measurement": "CC50 at 72 h", "setting": "[5]", "result": 14.6, "unit": "µM"}
    ]},
    {"smiles": "NCC(c1c[nH]c2c(-c3ccccc3)cccc12)c1c[nH]c2c(-c3ccccc3)cccc12", "note": "[3ca, 2,2-bis(7-phenyl-1H-indol-3-yl)ethan-1-amine]", "values": [
      {"measurement": "Effect on infection (intracellular amastigotes)", "setting": "[2]", "result": "significant reduction in the infection; also recorded: significant activity"},
      {"measurement": "IC50", "setting": "[3]", "result": 1.7, "unit": "µM"},
      {"measurement": "inhibition at 20 µM", "setting": "[3]", "result": "> 98", "unit": "%"},
      {"measurement": "Inhibition of L. infantum at 20 µM (%)", "setting": "[3]", "result": 98.0, "unit": "%"},
      {"measurement": "Cytotoxicity on THP‐1 (100, 20, 4 µM) (%)", "setting": "[4]; 4 µM", "result": "−19", "unit": "%"},
      {"measurement": "Cytotoxicity on THP‐1 (100, 20, 4 µM) (%)", "setting": "[4]; 20 µM", "result": 98, "unit": "%"},
      {"measurement": "Cytotoxicity on THP‐1 (100, 20, 4 µM) (%)", "setting": "[4]; 100 µM", "result": 89, "unit": "%"},
      {"measurement": "SI (Selectivity index = CC50/IC50)", "setting": "[4]", "result": 10.7},
      {"measurement": "CC50 at 72 h", "setting": "[5]", "result": 18.1, "unit": "µM"}
    ]},
    {"smiles": "c1ccc2c(Cc3c[nH]c4ccccc34)c[nH]c2c1", "note": "[DIM, 3,3′‐Diindolylmethane]", "values": [
      {"measurement": "IC50", "setting": "[6]", "result": 1.2, "unit": "µM"}
    ]},
    {"smiles": "O=[N+]([O-])c1ccc(C(c2c[nH]c3ccc(I)cc23)c2c[nH]c3ccc(I)cc23)cc1", "note": "[II]", "values": [
      {"measurement": "IC50", "setting": "[7]", "result": "< 10", "unit": "µM"}
    ]},
    {"smiles": "Clc1ccc(CNCC(c2c[nH]c3cc(Br)ccc23)c2c[nH]c3cc(Br)ccc23)cc1", "note": "[I]", "values": [
      {"measurement": "IC50", "setting": "[1]", "result": 2.7, "unit": "µM"},
      {"measurement": "CC50", "setting": "[8]", "result": 11.7, "unit": "µM"}
    ]},
    {"smiles": "CCOC(=O)c1c(C(=O)OC)cn(CC(c2cn(C)c3ccccc23)c2cn(C)c3ccccc23)c1C", "note": "[URB1483]", "values": [
      {"measurement": "Water solubility", "setting": "[9]", "result": "poor"},
      {"measurement": "Cytotoxicity in mammalian cells", "setting": "[10]", "result": "no quantifiable cytotoxicity"},
      {"measurement": "Outcome of in vivo studies", "setting": "[11]", "result": "failed"},
      {"measurement": "IC50", "setting": "[1]", "result": 3.7, "unit": "µM"}
    ]}
  ]
}
